Results on eight molecules are retold here after patent publication US20110152221A1, “PAK1 Agonists and Methods of Use” (THE BOARD OF TRUSTEES OF THE UNIVERSITY OF ILLINOIS, priority 2008, published 2011).

Series [1] addresses T1, Pak1 purified from cardiac muscle (Bos taurus, UniProt Q08E52).
T1 construct: from tissue; host or cells: bovine ventricle (cardiac) muscle
The series can be described thus: Pak1 kinase assay (autophosphorylation, [γ32P] ATP, autoradiography). In kind it is biochemical, bovine. The conditions noted are these: for autophosphorylation of Pak1: concentration not given. The procedure:
Preparation of Muscle Sample. Frozen bovine ventricle muscle (200 g) was cut into small pieces and homogenized in a blender containing 1 liter homogenization buffer (50 mM Tris base, 5 mM EDTA, 2 mM EGTA, 1 mM DTT, 0.5 mM benzamidine, 0.1 mM PMSF, pH 7.2). The homogenized muscle sample was centrifuged at 4500 g for 30 minutes. The supernatant fraction was saved and precipitated with ammonium sulfate (NH4)2SO4 at concentration 25% and 50% (w/v). Precipitates formed by (NH4)2SO4 addition between concentration 25% (w/v) and 50% (w/v) were saved and dialyzed against the homogenization buffer. After dialysis, the sample was filtered and lyophilized. For purification of Pak1 from smaller amounts of sample, the tissues or cells were homogenized in mammalian extraction buffer (50 mM Tris, pH 7.5; 150 mM NaCl; 0.1% Nonide P40; Complete Protease inhibitor cocktail tablets [Roche Diagnostics, cat # 11 873 580 001]). The ratio of tissue:buffer was about 1:5 (v/v). The homogenate was centrifuged in a bench-top centrifuge at 4° C. The supernatant fraction was saved for direct application onto the affinity column.
Affinity Chromatography. The column was first washed with 20 ml equilibration buffer (20 mM Tris, pH 7.5; 0.1 M NaCl; 0.1 mM EDTA). Decoy peptide (3 mg) was applied to the column to saturate the matrix with the peptide. The muscle sample (the lyophilized extract) was dissolved in buffer (20 mM Tris, pH 7.5; 0.1 M NaCl; 0.1 mM EDTA) containing protease inhibitor cocktail tablets. The sample was loaded onto the affinity column and then washed with 20 ml washing buffer (20 mM Tris, pH 7.5; 0.1 M NaCl; 0.1 mM EDTA; 0.05% Tween-20). The Pak1 bound to the gel was eluted with equilibration buffer containing HA peptide ([…]) (SEQ ID NO: 2) at 1 mg/ml. HA peptide was removed from the sample by dialysis in buffer containing 20 mM HEPES, 5 mM NaCl, pH 7.2. The bound Pak1 could also be eluted with 5 ml glycine buffer, pH 2.5 (50 mM glycine-HCl; 0.1% Triton X-100; 0.15 M NaCl).
Kinase Assay. Pak1 kinase activity was assayed in the following reaction buffer: 50 mM HEPES, pH 7.3, 10 mM MgCl2, 1 mM DTT, 0.05% Triton X-100) with 10 μCi of [γ32P] ATP (Perkin Elma. [γ-32P]-Adenosine 5′-triphosphate, Specific Activity: 3000 Ci (111TBq)/mmole, 50 mM Tricine (pH 7.6), Concentration: 5 mCi/mL, Catal NEG502H250UC) at 37° C. for 2 h. The kinase reaction was stopped by adding SDS sample buffer followed by boiling for 5 min. In view of reports of sphingosine-1 inducing an increase in Pak1 and Pak2 activity in vitro (Bokoch 1998, p 8137-8144; Roig 2001, p 195-199), the effect of sphingosine and sphingosine-1 phosphate on Pak1 autophosphorylation was also tested (FIG. 3A). The tested agonists (obtained from Calbiochem) included the following: C2 ceramide (N-acetyl-D-erythro-sphingosine), C6 ceramide (N-Hexanoyl-D-erythro-sphingosine) and safingol (Dihydro-L-threo-sphingosine). D-sphingosine (S 6879) and sphingosine 1-phosphate (S 9666) were purchased from Sigma. Sphingosines were dissolved in DMSO. The total reaction volume was 20 μl. DMSO (2 μl) was included in each reaction including the control. Incorporation of 32P from gamma 32P into Pak1 was directly detected by autoradiography after resolve the in vitro reaction products on SDS PAGE. […] When the sphingosine phosphate concentration increased to 100 and 200 μM, there was an increase in Pak1 autophosphorylation. In purified Pak1 sample, a 48 kD Pak1 degradation products can sometimes be detected (FIG. 1A, lane 3). When Pak1 activity increased, phosphorylation of the degradation products increased accordingly (FIG. 3).
Autophosphorylation of Pak1, which correlates with its activity, provided a measure of Pak-1 enzyme function. […] In all the in vitro assays, we used 4 μg of Pak1 protein. The smaller band (˜48 kD) that could be Pak1 degradation products was also phosphorylated. […] The decoy peptide contains Pak1 autophosphorylation sites. […]

Series [2] deals with cardiac troponin in cardiomyocytes / ventricle myocytes. Put plainly: Dephosphorylation of cardiac troponin in cardiomyocytes. In kind it is cell-based. From the text: FTY720 is a structural analogue of sphingosine-1 and C2/C6-ceramide. […] Therefore, like C2- and C6-ceramides, FTY720 can serve as a β-blocker competitor for ischemic heart diseases including angina and systolic heart failure. The anti-(β) adrenergic effect of FTY720 is through activation of Pak1 in the heart. Our current observation further enforced by our previous work on Pak1 function related to heart diseases. Our studies also indicate that even better drug candidates can be designed or screened by testing their effects on Pak1 activation or inhibition using C2/C6 ceramides and FTY720 as prototypes.

Another series relates to PP2A. The conditions noted are these: Dobrowsky 1993; cited from earlier work.
The test system of the next series is L-type Ca2+ channel. The conditions noted are these: different types of cells; Chik 1999, 2004; cited from earlier work.
In a further series the test system is T-cells. The note with it: O'Byrne 2000; cited from earlier work.
For another series, the system named is heart. The note with it: Furuya 2001; Lecour 2006; cited from earlier work.
Another series deals with heart rate. The conditions noted are these: same or lower dose than used in clinical studies for organ transplantation and multiple sclerosis; cited from earlier work.
The target of series [3] is T2, decoy peptide (YNSKKTSNSQKYMSFTDKSA) (amino acids 131-150 of SEQ ID NO: 1).
T2 chain: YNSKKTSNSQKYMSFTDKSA

T1 sequence (Q08E52 whole entry): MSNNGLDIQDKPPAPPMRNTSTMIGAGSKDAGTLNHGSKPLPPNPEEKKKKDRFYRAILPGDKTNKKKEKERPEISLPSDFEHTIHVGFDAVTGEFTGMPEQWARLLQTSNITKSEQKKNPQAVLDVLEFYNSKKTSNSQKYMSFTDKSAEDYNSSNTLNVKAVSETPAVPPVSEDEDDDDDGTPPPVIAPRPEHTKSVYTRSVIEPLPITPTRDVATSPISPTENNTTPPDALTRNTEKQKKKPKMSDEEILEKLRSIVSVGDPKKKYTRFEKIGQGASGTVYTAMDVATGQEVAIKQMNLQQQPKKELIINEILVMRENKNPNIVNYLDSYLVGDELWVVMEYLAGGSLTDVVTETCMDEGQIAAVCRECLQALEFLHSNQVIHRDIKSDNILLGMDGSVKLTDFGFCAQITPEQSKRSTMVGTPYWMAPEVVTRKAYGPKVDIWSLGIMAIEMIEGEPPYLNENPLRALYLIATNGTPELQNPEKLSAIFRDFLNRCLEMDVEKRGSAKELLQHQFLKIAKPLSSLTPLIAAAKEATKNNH

Turning to `CCCCCCCCCCCCC/C=C/[C@@H](O)[C@H](CO)NC(C)=O` [C2 ceramide, N-acetyl-D-erythro-sphingosine], the “effect activating Pak1 compared with sphingosine-1” value in series [1] is “stronger effect than sphingosine-1”. The “autophosphorylation of Pak1” value in series [1] (37° C., 2 h) was “highly responsive”. For the same molecule, the “dephosphorylation of cardiac troponin in cardiomyocytes” value in series [2] was “induces dephosphorylation”. The PP2A activation result with PP2A is listed as “known activator”. The “L-type Ca2+ channel activity” value in the series with L-type Ca2+ channel is reported as “depressed”. Besides, the “proliferation of T-cells stimulated by growth signals” value with T-cells was “inhibited proliferation”. Also, the “pre-conditioning effects in heart” value in the series on heart is given as “pre-conditioning effects”.

For the molecule `CCCCCCCCCCCCC/C=C/[C@@H](O)[C@@H](N)COP(=O)(O)O` [sphingosine-1 phosphate, sphingosine 1-phosphate], the “effect on autophosphorylation of Pak1” value in series [1] (at 25 and 50 μM, 37° C., 2 h) was “no significant effect”. Moreover, the Pak1 autophosphorylation entry in series [1] (at 100 and 200 μM, 37° C., 2 h) was “increase”.

On to `CCCCCCCCc1ccc(CCC(N)(CO)CO)cc1` [FTY720, fingolimod], for which the “cardiac effect (heart rate)” value in the series on heart rate is recorded as “decrease of heart rate”.

For `CCCCCCCCCCCCC/C=C/[C@@H](O)[C@H](CO)NC(=O)CCCCC` [C6 ceramide, N-Hexanoyl-D-erythro-sphingosine], the “effect activating Pak1 compared with sphingosine-1” value in series [1] is on record as “stronger effect than sphingosine-1”. For the same molecule, the “autophosphorylation of Pak1” value in series [1] (37° C., 2 h) is “highly responsive”. For the same molecule, the “dephosphorylation of cardiac troponin in cardiomyocytes” value in series [2] is “induces dephosphorylation”.

Regarding YNSKKTSNSQKYMSFTDKSA [decoy peptide], the “autophosphorylation of Pak1” value in series [1] (37° C., 2 h) was “slightly inhibited”. In series [1] (data not shown), the “total kinase activity in the presence of the decoy peptide” value is listed as “slight increase”.

Consider `CCCCCCCCCCCCCCC[C@H](O)[C@@H](N)CO` [saphingol, Dihydro-L-threo-sphingosine], for which the “autophosphorylation of Pak1” value is “only slightly regulated” in series [1] (37° C., 2 h) and “small stimulatory effect” in series [1] (37° C., 2 h, listed as Saphingosine).

Take `CCCCCCCCCCCCC/C=C/[C@@H](O)[C@@H](N)CO` [D-Sphingosine-1, D-erythro-sphingosine]: the “Autophosphorylation of the purified Pak1” value in series [1] (in the presence of 50 and 100 μM, 37° C., 2 h) was “increased”.

B1: Pak1 purified from bovine ventricle muscle (p21 activated kinase-1) (protein)
chain: SNNGLDIQDKPPAPPMRNTSTMIGAGSKDAGTLNHGSKPLPPNPEEKKKKDRFYRAILPGDKTNKKKEKERPEISLPSDFEHTIHVGFDAVTGEFTGMPEQWARLLQTSNITKSEQKKNPQAVLDVLEFYNSKKTSNSQKYMSFTDKSAEDYNSSNTLNVKAVSETPAVPPVSEDEDDDDDGTPPPVIAPRPEHTKSVYTRSVIEPLPITPTRDVATSPISPTENNTTPPDALTRNTEKQKKKPKMSDEEILEKLRSIVSVGDPKKKYTRFEKIGQGASGTVYTAMDVATGQEVAIKQMNLQQQPKKELIINEILVMRENKNPNIVNYLDSYLVGDELWVVMEYLAGGSLTDVVTETCMDEGQIAAVCRECLQALEFLHSNQVIHRDIKSDNILLGMDGSVKLTDFGFCAQITPEQSKRSTMVGTPYWMAPEVVTRKAYGPKVDIWSLGIMAIEMIEGEPPYLNENPLRALYLIATNGTPELQNPEKLSAIFRDFLNRCLEMDVEKRGSAKELLQHQFLKIAKPLSSLTPLIAAAKEATKNNH
B1: the “autophosphorylation of Pak1” value in series [3] is “The decoy peptide slightly inhibited autophosphorylation of Pak1”.
